23 compounds from patent US11807644B2 (PMV Pharmaceuticals, Inc., priority 2020, dated 2023) can be followed below.

In the assay the target is T1, recombinant His-tag Y220C p53 DBD protein (Homo sapiens, UniProt P04637, Y220C).
T1 construct: recombinant His-tag Y220C p53 DBD protein (amino acids #˜94-312)
The experiment in a line: In vitro DNA binding activity assay (TR-FRET): binding of His-tag Y220C p53 DBD to biotin-labeled consensus DNA. The format is biochemical. The settings on record: for Y220C SC150 (μM): SC150 = concentration to increase DNA binding by […], His-tag Y220C p53 DBD, biotin-labeled consensus DNA; for SC150 (μM): concentration to increase DNA binding by […], incubated at either 27° C. or 29° C. for 60 min. On the technique in general: In TR-FRET formats the signal depends on donor and acceptor labels being close together.

For the compound `CN1CC[C@@H](Nc2cccc3c2cc(-c2noc(CNC(=O)c4ccn(C(C)(C)C)c4)n2)n3CC(F)(F)F)[C@@H](F)C1` [Compound 194B, 1-tert-butyl-N-{[3-(4-{[(3S,4R)-3-fluoro-1-methylpiperidin-4-yl]amino}-1-(2,2,2-trifluoroethyl)-1H-indol-2-yl)-1,2,4-oxadiazol-5-yl]methyl}-1H-pyrrole-3-carboxamide], the “Y220C SC150 (μM)” value was “* (* = 0 μM ≤ SC150 < 0.1 μM)”.

Turning to `CC(C)c1nc(C(=O)NCc2nc(-c3cc4c(N[C@@H]5CCN(C)C[C@@H]5F)cccc4n3CC(F)(F)F)no2)cs1` [Compound 434B, N-{[3-(4-{[(3S,4R)-3-fluoro-1-methylpiperidin-4-yl]amino}-1-(2,2,2-trifluoroethyl)-1H-indol-2-yl)-1,2,4-oxadiazol-5-yl]methyl}-2-(propan-2-yl)-1,3-thiazole-4-carboxamide], the “Y220C SC150 (μM)” value is given as “* (* = 0 μM ≤ SC150 < 0.1 μM)”. Still for that read-out and setting: next, `COC1CCCC1n1ccc(C(=O)NCc2nc(-c3cc4c(N[C@@H]5CN(C)CC[C@@H]5F)cccc4n3CC(F)(F)F)no2)c1` (stereo in doubt) [Compound 410B, N-{[3-(4-{[(3R,4S)-4-fluoro-1-methylpiperidin-3-yl]amino}-1-(2,2,2-trifluoroethyl)-1H-indol-2-yl)-1,2,4-oxadiazol-5-yl]methyl}-1-[(1R,2R)-2-methoxycyclopentyl]-1H-pyrrole-3-carboxamide]: “* (* = 0 μM ≤ SC150 < 0.1 μM)”. Still for that read-out and setting: the value for `O=S1(=O)CCC(Nc2cccc3c2cc(-c2cnn(CCO)c2)n3CC(F)(F)F)CC1` [Compound 15B, 4-({2-[1-(2-hydroxyethyl)-1H-pyrazol-4-yl]-1-(2,2,2-trifluoroethyl)-1H-indol-4-yl}amino)-1λ^6-thiane-1,1-dione] was “**** (**** = 1 μM ≤ SC150 < 10 μM)”; that for `CN1CC[C@@H](Nc2cccc3c2cc(-c2noc(CNC(=O)c4ccc5ccn(C)c5c4)n2)n3CC(F)(F)F)[C@@H](F)C1` [Compound 254B, N-{[3-(4-{[(3S,4R)-3-fluoro-1-methylpiperidin-4-yl]amino}-1-(2,2,2-trifluoroethyl)-1H-indol-2-yl)-1,2,4-oxadiazol-5-yl]methyl}-1-methyl-1H-indole-6-carboxamide] was “* (* = 0 μM ≤ SC150 < 0.1 μM)”. Take `CN1CCC(Nc2cccc3c2cc(-c2nnc(CNc4ccc(S(C)(=O)=O)cc4)s2)n3CC(F)(F)F)CC1` [Compound 24B, 2-(5-{[(4-methanesulfonylphenyl)amino]methyl}-1,3,4-thiadiazol-2-yl)-N-(1-methylpiperidin-4-yl)-1-(2,2,2-trifluoroethyl)-1H-indol-4-amine]: the “Y220C SC150 (μM)” value was “** (** = 0.1 μM ≤ SC150 < 0.5 μM)”.

As for `COC(C)Cn1ccc(C(=O)NCc2nc(-c3cc4c(N[C@@H]5CCN(C)C[C@@H]5F)cccc4n3CC(F)(F)F)no2)c1` (stereo partly drawn) [Compound 253B, N-{[3-(4-{[(3S,4R)-3-fluoro-1-methylpiperidin-4-yl]amino}-1-(2,2,2-trifluoroethyl)-1H-indol-2-yl)-1,2,4-oxadiazol-5-yl]methyl}-1-(2-methoxypropyl)-1H-pyrrole-3-carboxamide], the “Y220C SC150 (μM)” value was “* (* = 0 μM ≤ SC150 < 0.1 μM)”. For the compound `CN1CC[C@@H](Nc2cccc3c2cc(-c2noc(CNc4cccc5c4ccn5C)n2)n3CC(F)(F)F)[C@@H](F)C1` [Compound 462B, N-[(3S,4R)-3-fluoro-1-methylpiperidin-4-yl]-2-(5-{[(1-methyl-1H-indol-4-yl)amino]methyl}-1,2,4-oxadiazol-3-yl)-1-(2,2,2-trifluoroethyl)-1H-indol-4-amine], the “Y220C SC150 (μM)” value was “* (* = 0 μM ≤ SC150 < 0.1 μM)”. Consider `CN1CC[C@@H](Nc2cccc3c2cc(-c2noc(CNC(=O)c4ccn(C5CCC(N(C)C)C5)c4)n2)n3CC(F)(F)F)[C@@H](F)C1` (stereo in doubt) [Compound 361B, 1-[(1R,3R)-3-(dimethylamino)cyclopentyl]-N-{[3-(4-{[(3S,4R)-3-fluoro-1-methylpiperidin-4-yl]amino}-1-(2,2,2-trifluoroethyl)-1H-indol-2-yl)-1,2,4-oxadiazol-5-yl]methyl}-1H-pyrrole-3-carboxamide], for which the “Y220C SC150 (μM)” value was “* (* = 0 μM ≤ SC150 < 0.1 μM)”. For the compound `CN1CC[C@@H](Nc2cccc3c2cc(-c2noc(CNC(=O)c4ccc(C(C)(C)C)n4C)n2)n3CC(F)(F)F)[C@@H](F)C1` [Compound 542B, 5-tert-butyl-N-{[3-(4-{[(3S,4R)-3-fluoro-1-methylpiperidin-4-yl]amino}-1-(2,2,2-trifluoroethyl)-1H-indol-2-yl)-1,2,4-oxadiazol-5-yl]methyl}-1-methyl-1H-pyrrole-2-carboxamide], the “Y220C SC150 (μM)” value is “* (* = 0 μM ≤ SC150 < 0.1 μM)”. On the same count and under the same terms, the value for `O=S1(=O)CCC(Nc2cccc3c2cc(-c2cnn(Cc4cccnc4)c2)n3CC(F)(F)F)CC1` [Compound 16B, 4-[(2-{1-[(pyridin-3-yl)methyl]-1H-pyrazol-4-yl}-1-(2,2,2-trifluoroethyl)-1H-indol-4-yl)amino]-1λ^6-thiane-1,1-dione] was “**** (**** = 1 μM ≤ SC150 < 10 μM)”. Regarding `O=S1(=O)CCC(Nc2cccc3c2cc(-c2ccc(CNc4ccccc4)cc2)n3CC(F)(F)F)CC1` [Compound 9A, 4-[(2-{4-[(phenylamino)methyl]phenyl}-1-(2,2,2-trifluoroethyl)-1H-indol-4-yl)amino]-1λ^6-thiane-1,1-dione], the “SC150 (μM)” value is reported as “+++ (+++ = 5 μM ≤ SC150 < 10 μM)”. In the case of `CN1CC[C@@H](Nc2cccc3c2cc(-c2noc(CNc4ccn(C(C)(C)C)n4)n2)n3CC(F)(F)F)[C@@H](F)C1` [Compound 390B, 2-(5-{[(1-tert-butyl-1H-pyrazol-3-yl)amino]methyl}-1,2,4-oxadiazol-3-yl)-N-[(3S,4R)-3-fluoro-1-methylpiperidin-4-yl]-1-(2,2,2-trifluoroethyl)-1H-indol-4-amine], the “Y220C SC150 (μM)” value was “* (* = 0 μM ≤ SC150 < 0.1 μM)”.

For the compound `CN1CC[C@H](Nc2cccc3c2cc(-c2nnc(CNC(=O)C4CC4)s2)n3CC(F)(F)F)[C@H](F)C1` [Compound 25B, N-{[5-(4-{[(3R,4S)-3-fluoro-1-methylpiperidin-4-yl]amino}-1-(2,2,2-trifluoroethyl)-1H-indol-2-yl)-1,3,4-thiadiazol-2-yl]methyl}cyclopropanecarboxamide], the “Y220C SC150 (μM)” value is “** (** = 0.1 μM ≤ SC150 < 0.5 μM)”.

With `CS(=O)(=O)c1ccc(NCc2ccc(-c3cc4c(NC5CCN(C6CCOCC6)CC5)cccc4n3CC(F)(F)F)cc2)cc1` [Compound 30A, 2-(4-{[(4-methanesulfonylphenyl)amino]methyl}phenyl)-N-[1-(oxan-4-yl)piperidin-4-yl]-1-(2,2,2-trifluoroethyl)-1H-indol-4-amine], the “SC150 (μM)” value is given as “+ (+ = 0 μM ≤ SC150 < 2 μM)”. For `CN1CC[C@H](Nc2cccc3c2cc(-c2nnc(CNC(=O)c4cccs4)o2)n3CC(F)(F)F)[C@H](F)C1` (racemic) [Compound 120B, (+/−)-N-{[5-(4-{[(3R, 4S)-3-fluoro-1-methylpiperidin-4-yl]amino}-1-(2,2,2-trifluoroethyl)-1H-indol-2-yl)-1,3,4-oxadiazol-2-yl]methyl}thiophene-2-carboxamide], the “Y220C SC150 (μM)” value is “** (** = 0.1 μM ≤ SC150 < 0.5 μM)”. As for `CCn1ccc(C(=O)NCc2nc(-c3cc4c(N[C@H]5CCN(C)C[C@H]5F)cccc4n3CC(F)(F)F)no2)c1` [Compound 187B, 1-ethyl-N-{[3-(4-{[(3R,4S)-3-fluoro-1-methylpiperidin-4-yl]amino}-1-(2,2,2-trifluoroethyl)-1H-indol-2-yl)-1,2,4-oxadiazol-5-yl]methyl}-1H-pyrrole-3-carboxamide], the “Y220C SC150 (μM)” value is recorded as “* (* = 0 μM ≤ SC150 < 0.1 μM)”. In the case of `CN1CCC(Nc2cccc3c2cc(-c2nc(CNC(=O)c4ccccc4)no2)n3CC(F)(F)F)CC1` [Compound 138B, N-[(5-{4-[(1-methylpiperidin-4-yl)amino]-1-(2,2,2-trifluoroethyl)-1H-indol-2-yl}-1,2,4-oxadiazol-3-yl)methyl]benzamide], the “Y220C SC150 (μM)” value is “** (** = 0.1 μM ≤ SC150 < 0.5 μM)”. Same read-out and setting: the value for `CN1CC[C@@H](Nc2cccc3c2cc(-c2noc(CNC(=O)C4CC4)n2)n3CC(F)(F)F)[C@@H](F)C1` (racemic) [Compound 171B, (+/−)-N-{[3-(4-{[(3R,4S)-3-fluoro-1-methylpiperidin-4-yl]amino}-1-(2,2,2-trifluoroethyl)-1H-indol-2-yl)-1,2,4-oxadiazol-5-yl]methyl}cyclopropanecarboxamide] was “* (* = 0 μM ≤ SC150 < 0.1 μM)”; that for `CN1CC[C@@H](Nc2cccc3c2cc(-c2nc(CNC(=O)c4ccsc4)no2)n3CC(F)(F)F)[C@@H](F)C1` (racemic) [Compound 278B, (+/−)-N-{[5-(4-{[(3R,4S)-3-fluoro-1-methylpiperidin-4-yl]amino}-1-(2,2,2-trifluoroethyl)-1H-indol-2-yl)-1,2,4-oxadiazol-3-yl]methyl}thiophene-3-carboxamide] was “* (* = 0 μM ≤ SC150 < 0.1 μM)”. Turning to `Cc1ccc(NCc2ccc(-c3cc4c(NC5CCN(C6CCOCC6)CC5)cccc4n3CC(F)(F)F)cc2)cn1` [Compound 31A, 2-(4-{[(6-methylpyridin-3-yl)amino]methyl}phenyl)-N-[1-(oxan-4-yl)piperidin-4-yl]-1-(2,2,2-trifluoroethyl)-1H-indol-4-amine], the “SC150 (μM)” value is on record as “+ (+ = 0 μM ≤ SC150 < 2 μM)”. As for `COc1ccc(NCc2nc(-c3cc4c(N[C@@H]5CCN(C)C[C@@H]5F)cccc4n3CC(F)(F)F)no2)cc1` [Compound 380B, N-[(3S,4R)-3-fluoro-1-methylpiperidin-4-yl]-2-(5-{[(4-methoxyphenyl)amino]methyl}-1,2,4-oxadiazol-3-yl)-1-(2,2,2-trifluoroethyl)-1H-indol-4-amine], the “Y220C SC150 (μM)” value is “* (* = 0 μM ≤ SC150 < 0.1 μM)”. Same read-out and setting: the value for `CN1CCC(Nc2cccc3c2cc(-c2nnc(CNC(=O)C4CC4c4cccs4)s2)n3CC(F)(F)F)CC1` (centres unmarked) [Compound 79B, N-[(5-{4-[(1-methylpiperidin-4-yl)amino]-1-(2,2,2-trifluoroethyl)-1H-indol-2-yl}-1,3,4-thiadiazol-2-yl)methyl]-2-(thiophen-2-yl)cyclopropane-1-carboxamide] was “* (* = 0 μM ≤ SC150 < 0.1 μM)”.
